In patent US20190218188A1, “NOVEL 5-SUBSTITUTED IMIDAZOLE DERIVATIVES” (Bayer CropScience Aktiengesellschaft, priority 2016, published 2019):

Assay: Log P by HPLC on reversed phase columns (EEC directive 79/831 Annex V.A8)
Format: physicochemical
Conditions: reversed phase HPLC column; method [a]: LC-UV, acidic range, 0.1% formic acid in water and acetonitrile as eluent (linear gradient 10% to 95% acetonitrile)
Description: Measurement of Log P values was performed according to EEC directive 79/831 Annex V.A8 by HPLC (High Performance Liquid Chromatography) on reversed phase columns with the following methods: • ^[a] Log P value is determined by measurement of LC-UV, in an acidic range, with 0.1% formic acid in water and acetonitrile as eluent (linear gradient from 10% acetonitrile to 95% acetonitrile). • ^[b] Log P value is determined by measurement of LC-UV, in a neutral range, with 0.001 molar ammonium acetate solution in water and acetonitrile as eluent (linear gradient from 10% acetonitrile to 95% acetonitrile). • ^[c] Log P value is determined by measurement of LC-UV, in an acidic range, with 0.1% phosphoric acid and acetonitrile as eluent (linear gradient from 10% acetonitrile to 95% acetonitrile). If more than one Log P value is available within the same method, all the values are given and separated by “+”. Calibration was done with straight-chain alkan2-ones (with 3 to 16 carbon atoms) with known Log P values (measurement of Log P values using retention times with linear interpolation between successive alkanones).

chromatographic logP | Structure (SMILES)
2.98 | N#Cc1cncn1CC(F)(Cc1cccc(F)c1F)C1(Cl)CC1 (centres unmarked) [Example I-01, 1-[2-(1-chlorocyclopropyl)-3-(2,3-difluorophenyl)-2-fluorpropyl]-1H-imidazole-5-carbonitrile]
3.25 | N#Cc1cncn1CC(Cl)(Cc1cccc(F)c1F)C1(Cl)CC1 (centres unmarked) [Example I-02, 1-[2-chloro-2-(1-chlorocyclopropyl)-3-(2,3-difluorophenyl)propyl]-1H-imidazole-5-carbonitrile]
